From PubChem BioAssay (NCI)
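Briefly, cells in 96-well plates were exposed to five compound concentrations for 48 h, and endpoints were estimated by linear interpolation. Here, GI50 denotes the concentration required for 50% inhibition of growth. TGI: total growth inhibition.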

Assays:
Assay in all cases: DTP human tumour cell line panel, 48 h
[1] = test system: HCC-2998 colon
[2] = test system: SR leukemia
[3] = test system: COLO 205 colon
[4] = test system: RPMI-8226 leukemia
[5] = test system: SF-539 CNS
[6] = test system: SW-620 colon
[7] = test system: SNB-19 CNS
[8] = test system: HT29 colon
[9] = test system: HOP-62 NSCLC
[10] = test system: NCI-H226 lung

Row | Compound | TGI [1] [µM] | TGI [2] [µM] | TGI [3] [µM] | TGI [4] [µM] | TGI [5] [µM] | TGI [6] [µM] | TGI [7] [µM] | TGI [8] [µM] | TGI [9] [µM] | TGI [10] [µM] | GI50 [1] [µM] | GI50 [2] [µM] | GI50 [3] [µM] | GI50 [4] [µM] | GI50 [5] [µM] | GI50 [6] [µM] | GI50 [7] [µM] | GI50 [8] [µM] | GI50 [10] [µM] | GI50 [9] [µM]
1 | CC(C)(O)CO/N=C1\C(c2c(O)[nH]c3ccccc23)=Nc2ccccc21 | 3.27 | > 100 | 2.29 | > 31.6 | 10.2 | > 86.4 | > 52.6 | > 35 | 16.4 |  |  |  |  |  |  |  |  |  |  | 
2 | C/C=C1/CN2CCC34c5ccccc5N(C)C23C2CC1C4(C(=O)OC)C(O)O2 (stereo unspecified) | > 100 |  | > 100 | > 100 | > 100 | > 100 | > 100 | > 100 | > 100 | > 100 |  |  |  |  |  |  |  |  |  | 
3 | CNS(=O)(=O)c1ccc2[nH]c(O)c(C3=Nc4ccccc4C3=O)c2c1 | > 100 |  | > 100 | > 100 |  | > 100 | > 100 | > 100 | > 100 | > 100 |  |  |  |  |  |  |  |  |  | 
4 | Cc1ccc([N+](=O)[O-])cc1S(=O)(=O)Nc1ccc(C2=NN(C(=O)c3ccccc3)C(c3cccs3)C2)cc1 (stereo unspecified) |  | > 100 | 32.8 | > 100 | 63.9 | > 100 | > 100 | > 100 | 78.3 | 88.3 |  |  |  |  |  |  |  |  |  | 
5 | N#CCCOCN(CO)c1nc(N(CO)COCCC#N)nc(N(CO)COCCC#N)n1 |  | 41.7 | 32.3 | 56.1 | 8.63 | 29.5 | > 100 | 69.9 | > 100 | 53.1 |  |  |  |  |  |  |  |  |  | 
6 | NC(=O)Nc1ccc(C(=O)NCCCNC(=O)c2ccc(NC(N)=O)cc2)cc1 | > 100 | > 100 | > 100 | > 100 | > 100 | > 100 | > 100 | > 100 | > 100 | > 100 |  |  |  |  |  |  |  |  |  | 
7 | CCCC1=C(C(=O)OCC)C(c2ccccc2OC)C(C#N)=C(N)O1 (stereo unspecified) | > 100 | > 100 | > 100 | 32.2 | > 100 | > 100 | > 100 | > 100 | > 100 | 58.2 | 77.3 | 29.1 | 66.3 | 13.3 | 39.8 | 27.8 | > 100 | 34.4 | 22.5 | > 100
8 | Cc1c(NC(=O)c2cc([N+](=O)[O-])cc([N+](=O)[O-])c2)c(=O)n(-c2ccccc2)n1C |  | > 100 | 52.2 | > 100 | > 100 | > 100 | > 100 | > 100 | > 100 | > 100 |  |  |  |  |  |  |  |  |  | 
9 | C[C@H](N[C@H]1CCC[C@]1(O)C#Cc1ccc2c(c1)OCO2)c1ccccc1 | > 25 | > 25 | > 25 | 16.9 |  |  | > 25 | > 25 | > 25 | > 25 |  |  |  |  |  |  |  |  |  | 
10 | O=C(NCCNc1nccc(-c2c(-c3cccc(O)c3)nc3sccn23)n1)Nc1cccc(C(F)(F)F)c1 | 5.77 | 40 | 12 | 5.46 | 36.9 | 13.4 | 36.2 | 10.8 | 23.4 | 28.5 | 2.68 | 6.08 | 3.36 | 2.52 | 13.1 | 3.84 | 5.09 | 3.45 | 9.99 | 8.33
